Data reported in ChEMBL document CHEMBL5380843 (J Med Chem, 2023).

Key:
[1] = tested on: Human immunodeficiency virus 1; assay: Antiviral activity against wild type HIV-1 IIIB infected in human MT4 cells assessed as protection against virus-induced cytopathic effect incubated for 5 days by MTT assay; type: functional, organism-based; conditions: Human immunodeficiency virus 1, IIIB, MT4, 120 h
[2] = Selectivity index, ratio of CC50 for cytotoxicity against human MT4 cells to EC50 for antiviral activity against wild type HIV-1 IIIB infected in human MT4 cells; type: toxicity, cell-based; conditions: read-out: Ratio CC50/EC50
[3] = Cytotoxicity against human MT4 cells assessed as reduction in cell viability incubated for 5 days by MTT assay; type: toxicity, cell-based; conditions: time 5 day
[4] = tested on: Human immunodeficiency virus 1; assay: Antiviral activity against wild type HIV-1 IIIB harboring reverse transcriptase […] mutant infected in human MT4 cells assessed as protection against virus-induced cytopathic effect incubated for 5 days by MTT assay; type: functional, organism-based; conditions: Human immunodeficiency virus 1, IIIB, MT4, 120 h
[5] = Resistant factor, ratio of EC50 for antiviral activity against HIV-1 IIIB harboring reverse transcriptase […] mutant to EC50 for antiviral activity against wild type HIV-1 IIIB; type: functional
[6] = tested on: Human immunodeficiency virus 1; assay: Antiviral activity against wild type HIV-1 IIIB harboring reverse transcriptase K103N mutant infected in human MT4 cells assessed as protection against virus-induced cytopathic effect incubated for 5 days by MTT assay; type: functional, organism-based; conditions: Human immunodeficiency virus 1, IIIB, MT4, 120 h
[7] = Resistant factor, ratio of EC50 for antiviral activity against HIV-1 IIIB harboring reverse transcriptase K103N mutant to EC50 for antiviral activity against wild type HIV-1 IIIB; type: functional
[8] = tested on: Human immunodeficiency virus 1; assay: Antiviral activity against wild type HIV-1 IIIB harboring reverse transcriptase Y181C mutant infected in human MT4 cells assessed as protection against virus-induced cytopathic effect incubated for 5 days by MTT assay; type: functional, organism-based; conditions: Human immunodeficiency virus 1, IIIB, MT4, 120 h
[9] = Resistant factor, ratio of EC50 for antiviral activity against HIV-1 IIIB harboring reverse transcriptase Y181C mutant to EC50 for antiviral activity against wild type HIV-1 IIIB; type: functional
[10] = tested on: Human immunodeficiency virus 1; assay: Antiviral activity against wild type HIV-1 IIIB harboring reverse transcriptase Y188L mutant infected in human MT4 cells assessed as protection against virus-induced cytopathic effect incubated for 5 days by MTT assay; type: functional, organism-based; conditions: Human immunodeficiency virus 1, IIIB, MT4, 120 h
[11] = Resistant factor, ratio of EC50 for antiviral activity against HIV-1 IIIB harboring reverse transcriptase Y188L mutant to EC50 for antiviral activity against wild type HIV-1 IIIB; type: functional
[12] = tested on: Human immunodeficiency virus 1; assay: Antiviral activity against wild type HIV-1 IIIB harboring reverse transcriptase E138K mutant infected in human MT4 cells assessed as protection against virus-induced cytopathic effect incubated for 5 days by MTT assay; type: functional, organism-based; conditions: Human immunodeficiency virus 1, IIIB, MT4, 120 h
[13] = Resistant factor, ratio of EC50 for antiviral activity against HIV-1 IIIB harboring reverse transcriptase E138K mutant to EC50 for antiviral activity against wild type HIV-1 IIIB; type: functional
[14] = molecular target: Human immunodeficiency virus type 1 reverse transcriptase (Human immunodeficiency virus 1, UniProt Q72547); assay: Inhibition of recombinant wild type HIV-1 reverse transcriptase using DNA/RNA as substrate incubated for 40 mins by Pico-green dye based spectrofluorometric analysis

Row | SMILES | EC50 [1] [nM] | selectivity ratio [2] | CC50 at 120 h [3] [nM] | EC50 [4] [nM] | Ratio EC50 [5] | EC50 [6] [nM] | Ratio EC50 [7] | EC50 [8] [nM] | Ratio EC50 [9] | EC50 [10] [nM] | Ratio EC50 [11] | EC50 [12] [nM] | Ratio EC50 [13] | IC50 [14] [nM]
1 | Cc1cc(-c2ccc(C#N)cc2)cc(C)c1Oc1nc(Nc2ccc(C#N)cc2)ncc1C(=O)NCCO | 3 | > 11900 | > 39600 | 13 | 3.9 | 6 | 1.8 | 29 | 8.8 | 44 | 13 | 6 | 1.8 | 55
2 | Cc1cc(-c2ccc(C#N)cc2)cc(C)c1Oc1nc(Nc2ccc(C#N)cc2)ncc1C(N)=O | 16 | > 2760 | > 43400 | 22 | 1.4 | 26 | 1.6 | 206 | 13 | 150 | 9.4 | 39 | 2.4 | 26
3 | Cc1cc(-c2ccc(C#N)cc2)cc(C)c1Oc1nc(Nc2ccc(C#N)cc2)ncc1C(=O)NC1CCC1 | 65 | > 3750 | > 243000 | 396 | 6.1 | 308 | 4.7 | 1020 | 16 | 1320 | 20 | 171 | 2.6 | 327
4 | N#Cc1ccc(Nc2ncc(C(N)=O)c(Oc3c(F)cc(-c4ccc(C#N)cc4)cc3F)n2)cc1 | 30 | > 1780 | > 53400 | 1210 | 40 | 175 | 5.8 | 10900 | 362 | 35300 | 1178 | 159 | 5.3 | 21
5 | Cc1cc(-c2ccc(C#N)cc2)cc(C)c1Oc1nc(Nc2ccc(C#N)cc2)ncc1C(=O)NCC1CC1 | 102 | 2060 | 210000 | 872 | 8.5 | 445 | 4.4 | 1160 | 11 | 1900 | 19 | 248 | 2.4 | 294
6 | Cc1cc(-c2ccc(C#N)cc2)cc(Cl)c1Oc1nc(Nc2ccc(C#N)cc2)ncc1C(N)=O | 33 | > 1270 | > 41600 | 49 | 1.5 | 31 | 0.9 | 35 | 1.1 | 94 | 2.8 | 5 | 0.2 | 66
7 | Cc1cc(-c2ccc(C#N)cc2)cc(C)c1Oc1nc(Nc2ccc(C#N)cc2)ncc1C(=O)NCCCO | 5 | 5590 | 31400 | 15 | 2.7 | 9 | 1.6 | 51 | 9.1 | 50 | 8.9 | – | 0.9 | 71
8 | Cc1cc(C#N)cc(C)c1Oc1nc(Nc2ccc(C#N)cc2)nc(N)c1Br [ETRAVIRINE] | 6 | – | > 4610 | 7 | – | 3 | – | 12 | – | 20 | – | 7 | – | –
9 | Cc1cc(/C=C/C#N)cc(C)c1Nc1ccnc(Nc2ccc(C#N)cc2)n1 [RILPIVIRINE] | – | – | – | 2 | – | 1 | – | 4 | – | – | – | – | – | –
10 | O=C1Nc2ccc(Cl)cc2[C@@](C#CC2CC2)(C(F)(F)F)O1 [EFAVIRENZ] | 7 | – | > 6340 | 44 | – | 102 | – | 7 | – | 290 | – | 6 | – | –
11 | Cc1ccnc2c1NC(=O)c1cccnc1N2C1CC1 [NEVIRAPINE] | – | – | > 15000 | 2100 | – | > 10100 | – | > 15900 | – | > 15900 | – | 210 | – | –
